Paper PMC5760633, “Determining direct binders of the Androgen Receptor using a high-throughput Cellular Thermal Shift Assay” (Scientific Reports, 2018)
pIC50: −log10 of the molar value. Read-outs that look alike come from different tables or passages of the source.

Experiments:
[1] = system: AR-driven transcription (ARE-Luciferase); assay: AR-driven transcription ARE Luciferase reporter assay in CWR22Pc-R1-AD1 cells; type: cell-based, human; settings: 24 h; for pIC50: read-out: AR-driven transcription (ARE-Luciferase), 24 h, IC50; for Conclusion: activity in ARE-Luciferase assay: Supplementary Table S1; for IC50: read-out: ARE-Luciferase response pIC50 (converted);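 on all read-outs here: cells stably carrying an ARE-driven firefly luciferase reporter, with luminescence as read-out, tested in phenol red free RPMI containing 10% charcoal stripped FBS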
Procedure: 15 µL 2x Steady-Glo® reagent (Promega) was added per well and incubated 15 min in the dark before reading luminescence using an EnVision platereader. Experiments were performed in phenol red free RPMI media supplemented with 10% charcoal stripped FBS.

Androgen Receptor (AR) = target: T1, Androgen Receptor (AR) (Homo sapiens, UniProt P10275, H875Y); assay: CETSA HT ITDRF at 46 °C, antagonist mode in the presence of 1 nM DHT, CWR22Pc-R1-AD1 cells; type: binding; settings: 2 h; for pIC50: AR target engagement (CETSA HT), IC50, CWR22Pc-R1-AD1 cells, 1 nM DHT, 46 °C heat shock; for Conclusion: activity in CETSA HT: Supplementary Table S1, 46 °C
T1 construct: exclusively expresses a structurally full-length AR containing a H874Y mutation; endogenous in cells; host or cells: CWR22Pc-R1-AD1
T1 sequence (P10275 1-920 H875Y): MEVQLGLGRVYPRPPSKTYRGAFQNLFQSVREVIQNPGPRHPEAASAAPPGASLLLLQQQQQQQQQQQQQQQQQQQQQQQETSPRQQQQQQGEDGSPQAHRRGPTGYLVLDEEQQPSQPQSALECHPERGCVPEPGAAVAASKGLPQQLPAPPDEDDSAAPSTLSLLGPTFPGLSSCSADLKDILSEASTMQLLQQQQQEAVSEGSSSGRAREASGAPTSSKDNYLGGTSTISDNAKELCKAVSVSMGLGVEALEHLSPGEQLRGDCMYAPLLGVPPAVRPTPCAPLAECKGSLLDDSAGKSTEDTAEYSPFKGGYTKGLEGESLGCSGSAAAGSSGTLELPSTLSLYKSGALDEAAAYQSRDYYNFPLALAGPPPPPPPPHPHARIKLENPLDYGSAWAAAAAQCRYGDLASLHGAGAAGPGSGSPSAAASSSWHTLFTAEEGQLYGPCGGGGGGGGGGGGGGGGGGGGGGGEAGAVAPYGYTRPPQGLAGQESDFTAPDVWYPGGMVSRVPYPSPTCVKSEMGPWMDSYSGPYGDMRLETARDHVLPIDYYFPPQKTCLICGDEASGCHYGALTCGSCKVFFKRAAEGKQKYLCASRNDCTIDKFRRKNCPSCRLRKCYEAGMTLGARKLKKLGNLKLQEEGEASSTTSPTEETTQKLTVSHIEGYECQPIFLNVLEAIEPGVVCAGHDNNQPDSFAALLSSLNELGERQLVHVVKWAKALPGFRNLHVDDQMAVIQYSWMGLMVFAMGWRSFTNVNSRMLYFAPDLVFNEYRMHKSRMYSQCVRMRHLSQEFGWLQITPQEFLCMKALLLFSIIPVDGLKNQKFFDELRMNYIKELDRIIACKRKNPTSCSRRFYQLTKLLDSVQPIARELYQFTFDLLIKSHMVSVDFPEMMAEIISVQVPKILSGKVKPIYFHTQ
Procedure: [sequence] experiments were performed in a plate-based, automation-compatible assay setup, as described in Supplementary Fig. S2e. […] Internal standard controls were included on each plate (Supplementary Fig. S10). […] 10 µL of cells were seeded per well of the PCR plate using a Multidrop Combi dispensor, covered with a plate lid, briefly centrifuged, and incubated under standard tissue culture conditions for 2 h or indicated timepoint. […] Cells were lysed by addition of 10 µL/well 2x SureFire Lysis Buffer using a Multidrop Combi. […] Antibody and AlphaScreen reagent, prepared as above, were added by Multidrop Combi (6 µL/well). Plates were incubated in the dark 16 h and analysed using an EnVision platereader.

total cellular AR = assay: CETSA HT control without heat shock and without exogenous DHT (total AR); type: cell-based, human; settings: 2 h compound incubation, no exogenous DHT, no 46 °C heat shock

SMILES | pIC50 ([1]; CWR22Pc-R1-AD1 cells, 1 nM DHT) | IC50 ([1]; Homo sapiens) | Conclusion: activity in ARE-Luciferase assay ([1]; 1 nM DHT) | pIC50 ([1]; Homo sapiens) | pIC50 (Androgen Receptor (AR)) | Conclusion: activity in CETSA HT (Androgen Receptor (AR)) | effect on total AR (no heat shock) (total cellular AR)
C[C@]12CC[C@H](O)CC1=CC[C@@H]1[C@@H]2CC[C@]2(C)C(c3cccnc3)=CC[C@@H]12 [Abiraterone] | – | – | Inactive | < 4.52 | < 4.52 | Inactive | –
CS(=O)(=O)c1ccc(-c2cnc(NCc3ccco3)n3cnnc23)cc1 [EED-226] | – | – | Inactive | < 4.52 | < 4.52 | Inactive | –
CCN(c1cc(-c2ccc(CN3CCOCC3)cc2)cc(C(=O)NCc2c(C)cc(C)[nH]c2=O)c1C)C1CCOCC1 [EPZ-6438] | – | – | Inactive | – | < 4.52 | Inactive | –
CN1CCN(c2ccc(C(=O)Nc3n[nH]c4ccc(Cc5cc(F)cc(F)c5)cc34)c(NC3CCOCC3)c2)CC1 [Entrectinib] | – | 11.2 µM | Active | 4.95 | < 4.52 | Inactive | do not reduce total AR
CO[C@H]1CNC[C@@H](OCC2CCC(F)(F)CC2)[C@@H]1Nc1ncc(-c2cncc(C)c2)c2cc(C)c(=O)[nH]c12 [GSK8814] | – | – | Inactive | < 4.52 | < 4.52 | Inactive | –
Cc1sc2c(c1C)C(c1ccc(Cl)cc1)=N[C@@H](CC(=O)OC(C)(C)C)c1nnc(C)n1-2 [JQ1] | 6.52 | – | Partial | – | – | – | –
Cc1cc(-c2ncc(CC(=O)Nc3ccc(-c4cnccn4)cn3)cc2C)ccn1 [WNT-974] | – | – | Inactive | < 4.52 | < 4.52 | Inactive | –
Oc1nc(-c2ccc(C(F)(F)F)cc2)nc2c1CSCC2 [XAV-939] | – | – | Inactive | < 4.52 | < 4.52 | Inactive | –

Now from value to compound, other results behind:

pIC50 ([1]; CWR22Pc-R1-AD1 cells, 1 nM DHT) | IC50 ([1]; Homo sapiens) | SMILES | Conclusion: activity in ARE-Luciferase assay ([1]; 1 nM DHT) | pIC50 ([1]; Homo sapiens) | pIC50 (Androgen Receptor (AR)) | Conclusion: activity in CETSA HT (Androgen Receptor (AR)) | effect on total AR (no heat shock) (total cellular AR)
< 4.52 | – | CN(C)[C@H]1CN(C2CCc3cccc(F)c32)C[C@@H]1c1ccc(N2CCN(S(C)(=O)=O)CC2)cc1 (stereo partly shown) [A-395] | Inactive | – | – | – | –
< 5.00 | – | COc1ccc(/C=C/C(=O)/C=C(O)/C=C/c2ccc(OC)c(OC)c2)cc1OC [ACS-J9] | Active | – | – | – | –
– | 2.57 µM | CO[C@@H](C(=O)N1Cc2n[nH]c(NC(=O)c3ccc(N4CCN(C)CC4)cc3)c2C1)c1ccccc1 [Danusertib] | Active | 5.59 | < 4.52 | Inactive | –
< 4.52 | – | O=C(O)c1ccc(CN2CCC(CN[C@@H]3C[C@H]3c3ccccc3)CC2)cc1 [GSK2879522] | Inactive | – | – | – | –
< 4.52 | – | CC[C@H](C)n1cc(C)c2c(C(=O)NCc3c(C)cc(C)[nH]c3=O)cc(-c3ccc(N4CCNCC4)nc3)cc21 [GSK-126] | Inactive | – | – | – | –
– | 0.955 µM | O=C(Nc1ccc([N+](=O)[O-])cc1Cl)c1cc(Cl)ccc1O [Niclosamide] | Active | 6.02 | – | – | –
– | 0.214 µM | Cc1sc2c(c1C)C(c1ccc(Cl)cc1)=N[C@@H](CC(=O)Nc1ccc(O)cc1)c1nnc(C)n1-2 [OTX-015] | Partial | 6.67 | < 4.52 | Inactive | –
– | 3.24 µM | C=CCNC1=C2C[C@@H](C)C[C@H](OC)[C@H](O)[C@@H](C)/C=C(\C)[C@H](OC(N)=O)[C@@H](OC)/C=C\C=C(/C)C(=O)NC(=CC1=O)C2=O [Tanespimycin] | Active | 5.49 | – | – | –
